Reference: patent publication US12252524B2, “GIP/GLP1 co-agonist compounds” (Eli Lilly and Company, priority 2018, dated 2025)
Numbered stars: 1 amine (or outer) side, 2 acyl side, 3 side chain; on linkers, the order of the positions; unused ones are H or OH. Square brackets hold non-standard residues; d marks the D form. Side chains are listed from the residue outwards. Peptide text beside a SMILES is read from it. * marks the point of attachment. C20 diacid = O=C(O)CCCCCCCCCCCCCCCCCCC(=O)*; αMePhe(2-F) = C[C@](N)(Cc1ccccc1F)C(=O)O; γGlu = O=C(O)[C@H](CCC(=O)[*:2])N[*:1]; Desaminohistidyl = O=C(CCc1c[nH]cn1)*; αMeF = C[C@](N)(Cc1ccccc1)C(=O)O; αMeL = CC(C)C[C@](C)(N)C(=O)O; αMeP = C[C@@]1(C(=O)O)CCCN1; AEEA = NCCOCCOCC(=O)O; Aib = CC(C)(N)C(=O)O

How the values were obtained:
[1] = target: human GLP-1 receptor (GLP-1R) (Homo sapiens, UniProt P43220); test: cAMP pharmacological functional assay in presence of casein, hGLP-1R; type: cell-based; settings: HEK293 cells expressing hGLP-1R, 0.1% Casein, geometric mean; read-out: hGLP1R cAMP Rel EC50 nM (SEM, n)
Sequence of human GLP-1 receptor (GLP-1R) (P43220 24-463): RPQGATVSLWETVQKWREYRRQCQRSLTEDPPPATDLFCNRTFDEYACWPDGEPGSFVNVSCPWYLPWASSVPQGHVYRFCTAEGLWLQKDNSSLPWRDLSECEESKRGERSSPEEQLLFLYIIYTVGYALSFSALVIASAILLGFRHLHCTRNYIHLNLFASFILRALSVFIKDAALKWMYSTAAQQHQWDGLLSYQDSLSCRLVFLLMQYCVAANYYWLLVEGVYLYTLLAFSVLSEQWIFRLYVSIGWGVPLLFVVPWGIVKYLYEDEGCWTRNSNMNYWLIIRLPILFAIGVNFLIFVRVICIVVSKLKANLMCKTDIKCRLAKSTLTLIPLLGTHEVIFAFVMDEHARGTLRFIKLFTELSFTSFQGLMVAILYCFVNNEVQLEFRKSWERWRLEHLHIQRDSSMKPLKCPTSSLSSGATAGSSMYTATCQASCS

[2] = target: T1, gastric inhibitory peptide receptor (GIPR) (Homo sapiens, UniProt P48546); test: cAMP pharmacological functional assay in presence of casein, hGIPR; type: cell-based; settings: HEK293 cells expressing hGIPR, 0.1% Casein, geometric mean; read-out: hGIPR cAMP Rel EC50 nM (SEM, n)
T1 sequence (P48546 22-466): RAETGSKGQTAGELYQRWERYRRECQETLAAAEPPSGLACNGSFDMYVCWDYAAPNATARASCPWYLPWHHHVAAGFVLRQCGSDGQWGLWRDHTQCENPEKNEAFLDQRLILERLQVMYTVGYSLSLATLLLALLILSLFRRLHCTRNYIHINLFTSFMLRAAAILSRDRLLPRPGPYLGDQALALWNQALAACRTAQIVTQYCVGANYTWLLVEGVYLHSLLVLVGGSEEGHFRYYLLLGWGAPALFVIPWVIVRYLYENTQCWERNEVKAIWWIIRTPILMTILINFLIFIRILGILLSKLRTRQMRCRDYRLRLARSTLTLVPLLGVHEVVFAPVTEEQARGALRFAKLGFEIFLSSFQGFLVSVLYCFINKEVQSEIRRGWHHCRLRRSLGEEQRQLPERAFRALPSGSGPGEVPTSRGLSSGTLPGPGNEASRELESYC

CC[C@H](C)[C@H](NC(=O)[C@H](CC(C)C)NC(=O)[C@H](Cc1ccc(O)cc1)NC(=O)[C@@H](CCC(=O)O)NC(=O)[C@@H](NC(=O)[C@H](Cc1ccccc1)NC(=O)[C@@H](NC(=O)C(C)(C)NC(=O)[C@H](CCC(N)=O)NC(=O)[C@H](C)NC(=O)[C@H](CCCCNC(=O)COCCOCCNC(=O)COCCOCCNC(=O)CC[C@H](NC(=O)CCCCCCCCCCCCCCCCCCC(=O)O)C(=O)O)NC(=O)[C@H](CCC(=O)O)NC(=O)[C@H](CC(=O)O)NC(=O)[C@H](CC(C)C)NC(=O)[C@](C)(CC(C)C)NC(=O)[C@@H](NC(=O)[C@H](CO)NC(=O)[C@H](Cc1c[nH]cn1)NC(=O)[C@H](CC(=O)O)NC(=O)[C@H](CO)NC(=O)[C@@H](NC(=O)[C@](C)(Cc1ccccc1F)NC(=O)[C@@H](NC(=O)CNC(=O)[C@H](CCC(=O)O)NC(=O)C(C)(C)NC(=O)[C@@H](N)Cc1ccc(O)cc1)[C@@H](C)O)[C@@H](C)O)[C@@H](C)CC)[C@@H](C)O)[C@@H](C)CC)C(=O)N[C@@H](CCC(=O)O)C(=O)NCC(=O)NCC(=O)N1CCC[C@H]1C(=O)N[C@@H](CO)C(=O)N[C@@H](CO)C(=O)NCC(=O)N[C@@H](C)C(=O)N1CCC[C@H]1C(=O)N1CCC[C@H]1C(=O)N1CCC[C@H]1C(=O)N[C@@H](CO)C(N)=O [Example 168] (H-Y[Aib]EGT[αMePhe(2-F)]TSDHSI[αMeL]LDEK([AEEA-AEEA-γGlu-C20 diacid])AQ[Aib]TFI[dE]YLIEGGPSSGAPPPS-NH2)
EC50 [1]: 1.8 nM
EC50 [2]: 0.572 nM

CC[C@H](C)[C@H](NC(=O)[C@H](CC(C)C)NC(=O)[C@H](Cc1ccc(O)cc1)NC(=O)[C@@H](CCC(=O)O)NC(=O)[C@@H](NC(=O)[C@H](Cc1ccccc1)NC(=O)[C@H](CCC(=O)O)NC(=O)C(C)(C)NC(=O)[C@H](CCC(N)=O)NC(=O)[C@H](C)NC(=O)[C@H](CCC(N)=O)NC(=O)[C@H](CCC(=O)O)NC(=O)[C@H](CC(=O)O)NC(=O)[C@H](CC(C)C)NC(=O)[C@](C)(CC(C)C)NC(=O)[C@@H](NC(=O)[C@H](CO)NC(=O)[C@H](Cc1ccc(O)cc1)NC(=O)[C@H](CC(=O)O)NC(=O)[C@H](CO)NC(=O)[C@@H](NC(=O)[C@](C)(Cc1ccccc1F)NC(=O)[C@@H](NC(=O)CNC(=O)[C@H](CCC(=O)O)NC(=O)C(C)(C)NC(=O)[C@@H](N)Cc1ccc(O)cc1)[C@@H](C)O)[C@@H](C)O)[C@@H](C)CC)[C@@H](C)CC)C(=O)N[C@@H](CCC(=O)O)C(=O)NCC(=O)NCC(=O)N1CCC[C@H]1C(=O)N[C@@H](CO)C(=O)N[C@@H](CO)C(=O)NCC(=O)N[C@@H](C)C(=O)N1CCC[C@H]1C(=O)N1CCC[C@H]1C(=O)N1CCC[C@H]1C(=O)N[C@@H](CO)C(=O)N[C@@H](CS)C(N)=O [Example 279] (H-Y[Aib]EGT[αMePhe(2-F)]TSDYSI[αMeL]LDEQAQ[Aib]EFI[dE]YLIEGGPSSGAPPPSC-NH2)
EC50 [1]: 0.11 nM
EC50 [2]: 0.564 nM

CC[C@H](C)[C@H](NC(=O)[C@H](CC(C)C)NC(=O)[C@H](Cc1ccc(O)cc1)NC(=O)[C@H](CCC(=O)O)NC(=O)[C@@H](NC(=O)[C@H](Cc1ccccc1)NC(=O)[C@H](C)NC(=O)[C@H](CCCCN)NC(=O)[C@H](CCC(N)=O)NC(=O)[C@H](C)NC(=O)[C@H](CCCCNC(=O)COCCOCCNC(=O)COCCOCCNC(=O)CC[C@H](NC(=O)CCCCCCCCCCCCCCCCCCC(=O)O)C(=O)O)NC(=O)[C@H](CCCCN)NC(=O)[C@H](CC(=O)O)NC(=O)[C@H](CC(C)C)NC(=O)[C@H](CC(C)C)NC(=O)[C@@H](NC(=O)[C@H](CO)NC(=O)[C@H](Cc1ccc(O)cc1)NC(=O)[C@H](CC(=O)O)NC(=O)[C@H](CO)NC(=O)[C@@H](NC(=O)[C@H](Cc1ccccc1)NC(=O)[C@@H](NC(=O)CNC(=O)[C@H](CCC(=O)O)NC(=O)C(C)(C)NC(=O)[C@@H](N)Cc1ccc(O)cc1)[C@@H](C)O)[C@@H](C)O)[C@@H](C)CC)[C@@H](C)CC)C(=O)N[C@@H](CCC(=O)O)C(=O)NCC(=O)NCC(=O)N1CCC[C@H]1C(=O)N[C@@H](CO)C(=O)N[C@@H](CO)C(=O)NCC(=O)N[C@@H](C)C(=O)N1CCC[C@H]1C(=O)N1CCC[C@H]1C(=O)N1CCC[C@H]1C(=O)N[C@@H](CO)C(N)=O [Example 256]
EC50 [1]: 0.0506 nM
EC50 [2]: 0.643 nM

CC[C@H](C)[C@H](NC(=O)[C@H](CC(C)C)NC(=O)[C@H](Cc1ccc(O)cc1)NC(=O)[C@H](CCC(=O)O)NC(=O)[C@@H](NC(=O)[C@H](Cc1ccccc1)NC(=O)[C@H](C)NC(=O)[C@H](CCC(N)=O)NC(=O)[C@H](CCC(N)=O)NC(=O)[C@H](C)NC(=O)[C@H](CCCCNC(=O)COCCOCCNC(=O)COCCOCCNC(=O)CC[C@H](NC(=O)CCCCCCCCCCCCCCCCCCC(=O)O)C(=O)O)NC(=O)[C@H](CCC(=O)O)NC(=O)[C@H](CC(=O)O)NC(=O)[C@H](CC(C)C)NC(=O)[C@H](CC(C)C)NC(=O)[C@@H](NC(=O)[C@H](CO)NC(=O)[C@H](Cc1ccc(O)cc1)NC(=O)[C@H](CC(=O)O)NC(=O)[C@H](CO)NC(=O)[C@@H](NC(=O)[C@H](Cc1ccccc1)NC(=O)[C@@H](NC(=O)CNC(=O)[C@H](CCC(=O)O)NC(=O)[C@]1(C)CCCN1C(=O)CCc1c[nH]cn1)[C@@H](C)O)[C@@H](C)O)[C@@H](C)CC)[C@@H](C)CC)C(=O)N[C@@H](CCC(=O)O)C(=O)NCC(=O)NCC(=O)N1CCC[C@H]1C(=O)N[C@@H](CO)C(=O)N[C@@H](CO)C(=O)NCC(=O)N[C@@H](C)C(=O)N1CCC[C@H]1C(=O)N1CCC[C@H]1C(=O)N1CCC[C@H]1C(=O)N[C@@H](CO)C(N)=O [Example 201] (Desaminohistidyl-[αMeP]EGTFTSDYSILLDEK([AEEA-AEEA-γGlu-C20 diacid])AQQAFIEYLIEGGPSSGAPPPS-NH2)
EC50 [1]: 0.0385 nM
EC50 [2]: > 30 nM

CC[C@H](C)[C@H](NC(=O)[C@H](CC(C)C)NC(=O)[C@H](Cc1ccc(O)cc1)NC(=O)[C@H](CCC(=O)O)NC(=O)[C@@H](NC(=O)[C@H](Cc1ccccc1)NC(=O)[C@H](C)NC(=O)C(C)(C)NC(=O)[C@H](CCC(N)=O)NC(=O)[C@H](C)NC(=O)[C@H](CCCCNC(=O)COCCOCCNC(=O)COCCOCCNC(=O)CC[C@H](NC(=O)CCCCCCCCCCCCCCCCCCC(=O)O)C(=O)O)NC(=O)[C@H](CCCCN)NC(=O)[C@H](CC(=O)O)NC(=O)[C@H](CC(C)C)NC(=O)[C@H](CC(C)C)NC(=O)[C@@H](NC(=O)[C@H](CO)NC(=O)[C@H](Cc1ccc(O)cc1)NC(=O)[C@H](CC(=O)O)NC(=O)[C@H](CO)NC(=O)[C@@H](NC(=O)[C@](C)(Cc1ccccc1)NC(=O)[C@@H](NC(=O)CNC(=O)[C@H](CCC(=O)O)NC(=O)C(C)(C)NC(=O)[C@@H](N)Cc1ccc(O)cc1)[C@@H](C)O)[C@@H](C)O)[C@@H](C)CC)[C@@H](C)CC)C(=O)N[C@@H](CCC(=O)O)C(=O)NCC(=O)NCC(N)=O [Example 98] (H-Y[Aib]EGT[αMeF]TSDYSILLDKK([AEEA-AEEA-γGlu-C20 diacid])AQ[Aib]AFIEYLIEGG-NH2)
EC50 [1]: 0.157 nM
EC50 [2]: 0.0718 nM

CC[C@H](C)[C@H](NC(=O)[C@H](CCCCN)NC(=O)[C@H](CC(=O)O)NC(=O)[C@H](CC(C)C)NC(=O)[C@H](CC(C)C)NC(=O)[C@@H](NC(=O)[C@H](CO)NC(=O)[C@H](CCCCNC(=O)COCCOCCNC(=O)COCCOCCNC(=O)CC[C@H](NC(=O)CCCCCCCCCCCCCCCCCCC(=O)O)C(=O)O)NC(=O)[C@H](CC(=O)O)NC(=O)[C@H](CO)NC(=O)[C@@H](NC(=O)[C@](C)(Cc1ccccc1)NC(=O)[C@@H](NC(=O)CNC(=O)[C@H](CCC(=O)O)NC(=O)C(C)(C)NC(=O)[C@@H](N)Cc1ccc(O)cc1)[C@@H](C)O)[C@@H](C)O)[C@@H](C)CC)C(=O)N[C@@H](C)C(=O)N[C@@H](CCC(N)=O)C(=O)NC(C)(C)C(=O)N[C@@H](C)C(=O)N[C@@H](Cc1ccccc1)C(=O)N[C@H](C(=O)N[C@@H](CCC(=O)O)C(=O)N[C@@H](Cc1ccc(O)cc1)C(=O)N[C@@H](CC(C)C)C(=O)N[C@H](C(=O)N[C@@H](CCC(=O)O)C(=O)NCC(=O)NCC(N)=O)[C@@H](C)CC)[C@@H](C)CC [Example 92] (H-Y[Aib]EGT[αMeF]TSDK([AEEA-AEEA-γGlu-C20 diacid])SILLDKIAQ[Aib]AFIEYLIEGG-NH2)
EC50 [1]: 0.257 nM
EC50 [2]: 0.338 nM

CC[C@H](C)[C@H](NC(=O)[C@H](CCCCN)NC(=O)[C@H](CC(=O)O)NC(=O)[C@H](CC(C)C)NC(=O)[C@H](CC(C)C)NC(=O)[C@@H](NC(=O)[C@H](CO)NC(=O)[C@H](Cc1ccc(O)cc1)NC(=O)[C@H](CC(=O)O)NC(=O)[C@H](CO)NC(=O)[C@@H](NC(=O)[C@H](Cc1ccccc1)NC(=O)[C@@H](NC(=O)CNC(=O)[C@H](CCC(=O)O)NC(=O)C(C)(C)NC(=O)[C@@H](N)Cc1ccc(O)cc1)[C@@H](C)O)[C@@H](C)O)[C@@H](C)CC)C(=O)N[C@@H](C)C(=O)N[C@@H](CCC(N)=O)C(=O)NC(C)(C)C(=O)N[C@@H](C)C(=O)N[C@@H](Cc1ccccc1)C(=O)N[C@H](C(=O)N[C@@H](CCC(=O)O)C(=O)N[C@@H](Cc1ccc(O)cc1)C(=O)N[C@@H](CC(C)C)C(=O)N[C@H](C(=O)N[C@@H](CCC(=O)O)C(=O)NCC(=O)NCC(=O)N1CCC[C@H]1C(=O)N[C@@H](CO)C(=O)N[C@@H](CO)C(=O)NCC(=O)N[C@@H](C)C(=O)N1CCC[C@H]1C(=O)N1CCC[C@H]1C(=O)N[C@@H](CCCCNC(=O)COCCOCCNC(=O)COCCOCCNC(=O)CC[C@H](NC(=O)CCCCCCCCCCCCCCCCCCC(=O)O)C(=O)O)C(=O)N[C@@H](CO)C(N)=O)[C@@H](C)CC)[C@@H](C)CC [Example 47] (H-Y[Aib]EGTFTSDYSILLDKIAQ[Aib]AFIEYLIEGGPSSGAPPK([AEEA-AEEA-γGlu-C20 diacid])S-NH2)
EC50 [1]: 0.702 nM
EC50 [2]: 0.287 nM
